Experimental findings from article PMC10759558 (European journal of medicinal chemistry, 2023) are described below.

The structures appear in SMILES notation.

In this test the test system is HIVLAI. In words: Antiviral activity in MT-2 human-T-lymphoid cells exposed to HIVLAI. It counts as cell-based, HIV-1. The following applies: for antiviral activity (in words): MT-2 cells exposed to HIVLAI.

Consider `Cc1ccc(C(=O)N[C@@H](Cc2cc(F)cc(F)c2)[C@H](O)CN(CC(C)C)S(=O)(=O)c2ccc(N)cc2)cc1Nc1nccc(-c2cccnc2)n1` [5d, N-((2S,3R)-4-((4-amino-N-isobutylphenyl)sulfonamido)-1-(3,5-difluorophenyl)-3-hydroxybutan-2-yl)-4-methyl-3-((4-(pyridin-3-yl)pyrimidin-2-yl)amino)benzamide], for which the “fold reduction in antiviral activity over compound 5c” value (MT-2 cells, HIVLAI, compared with 5c) is given as 3 fold.

As for `COc1ccc(S(=O)(=O)N(CC(C)C)C[C@@H](O)[C@H](Cc2ccccc2)NC(=O)c2ccc(C)c(Nc3nc(C)cs3)c2)cc1` [5j, N-((2S,3R)-3-hydroxy-4-((N-isobutyl-4-methoxyphenyl)sulfonamido)-1-phenylbutan-2-yl)-4-methyl-3-((4-methylthiazol-2-yl)amino)benzamide], the “antiviral activity (in words)” value is recorded as “did not show any appreciable antiviral activity”. Regarding `COc1ccc(S(=O)(=O)N(CC(C)C)C[C@@H](O)[C@H](Cc2ccccc2)NC(=O)c2cccc(Nc3nc(-c4cccnc4)cs3)c2C)cc1` [5f, N-((2S,3R)-3-hydroxy-4-((N-isobutyl-4-methoxyphenyl)sulfonamido)-1-phenylbutan-2-yl)-2-methyl-3-((4-(pyridin-3-yl)thiazol-2-yl)amino)benzamide], the “antiviral activity (in words)” value is “did not exhibit any appreciable antiviral activity”.
